Reference: patent US20120309734A1, “COMBRETASTATIN DERIVATIVES AND USES THEREFOR” (priority 2009, published 2012)
Where two headings read alike, the source gives them in different places. Values belong to the molecule of their own block, whether it stands above or below them.

Legend:
A2780-parental = assay: Alamar Blue cell viability assay; assay type: cell-based; settings: 72 h
A2780-ADR (PGP) = assay: Alamar Blue cell viability assay; settings: for IC50: A2780 ADR, 72 h; for RF: IC50 A2780-ADR (PGP) / IC50 A2780-parental
[1] = tested on: human promyelocytic leukaemia HL-60 cells; assay: MTT cell viability assay; assay type: cell-based; settings: read-out: Inhibition of cell viability (IC50 value, nM) HL-60
[2] = tested on: primary CML cells (BCR-ABL-positive); assay: Apoptosis in ex vivo CML cells, annexin V staining; assay type: cell-based, human; settings: 72 h
From the text: This study is the first pre-clinical evaluation of combretastatins in the treatment of chemotherapy naive and patients with acquired imatinib mesylate resistance (refractory or relapsed disease despite adequate dose and duration). Imatinib mesylate is the first line treatment in BCR-ABL-positive CML chemotherapy. BCR-ABL, a constitutively active protein tyrosine kinase is a product of the Philadelphia chromosome (Ph) translocation t(9;22) and plays a central role in the pathogenesis of CML. […] All cells were treated with a clinically achievable concentration of imatinib mesylate (indicated as STI in FIG. 3) [250 nM]. […] The percentage apoptosis was determined by flow cytometric analysis of annexin-V stained cells.
The percentage of apoptosis in ex-vivo CML cells was determined by annexin V staining. […] Cells were collected by centrifugation at 400×g for 5 min and resuspended in anti-CD-45 diluted 1:50 in RPMI medium. Following a 10 min incubation in the dark at room temperature, cells were centrifuged and washed in Annexin binding buffer (Biosource, Nivelles, Belgium). Cells were again centrifuged and resuspended in Annexin-V-FITC (IQ products, Netherlands) diluted in Annexin binding buffer (1:50). Samples were next incubated in the dark on ice for 15 min. Annexin binding buffer (1 ml) was added to each sample. Samples were collected by centrifugation and resuspended in 0.5 ml of Annexin binding buffer. Cells were read immediately by flow cytometry and analysed by Cellquest software. CML cells were selected and gated based on their low to medium side scatter and low CD45 expression.

HL-60-BCRP = assay: Alamar Blue cell viability assay
[3] = tested on: normal mouse mammary epithelial cells; assay: Viability of normal mammary epithelial cells; assay type: cell-based; settings: for Percent viability of normal mammary epithelial cells compared to control: 10 nM, 72 hr treatment; for effects on normal mammary epithelial cells: up to 10 μM
Method: The maximum toxicity elicited by these drugs on normal cells at a concentration of 10 nM was only 8% (see Table 4).

p-glycoprotein = target: T1, p-glycoprotein (Homo sapiens, UniProt P08183); assay: Anti-proliferative effects in multi-drug resistant cells, conclusion on efflux; assay type: cell-based; settings: concluded from resistance factors
T1 construct: HL-60-MDR (overexpress p-glycoprotein); endogenous in cells; host or cells: HL-60-MDR, A2780-ADR

HL-60-MDR(PGP) = assay: Alamar Blue cell viability assay; assay type: cell-based, human; settings: for IC50: Homo sapiens, HL60/MDR, 72 h; for RF: IC50 HL-60-MDR(PGP) / IC50 HL-60 parental
[4] = tested on: human chronic myeloid leukaemia K562 cells; assay: MTT cell viability assay; assay type: cell-based; settings: read-out: Inhibition of cell viability (IC50 value, nM) K562
[5] = tested on: normal mouse mammary epithelial cells; assay: Viability of normal mammary epithelial cells; assay type: cell-based; settings: 72 hr treatment
HL-60 parental = assay: Alamar Blue cell viability assay; assay type: cell-based; settings: Homo sapiens, 72 h
[6] = tested on: MCF-7 breast cancer cell line; assay: Antiproliferation study, MTT cell viability assay; assay type: cell-based; settings: Homo sapiens
Method: All assays were performed in triplicate for the determination of mean values reported. Compounds were assayed as the free bases isolated from reaction. The human breast tumour cell line MCF-7 was cultured in Eagles minimum essential medium in a […] atmosphere with 10% fetal bovine serum, 2 mM L-glutamine and 100 μg/mL penicillin/streptomycin. The medium was supplemented with 1% non-essential amino acids. MDA-MB-231 cells were maintained in Dulbecco's Modified Eagle's medium (DMEM), supplemented with 10% (v/v) Fetal bovine serum, 2 mM L-glutamine and 100 μg/mL penicillin/streptomycin (complete medium). Cells were trypsinised and seeded at a density of 2.5×10^4 cells/ml in a 96-well plate and incubated at 37° C., […] atmosphere for 24 h. […] Control wells contained the equivalent volume of the vehicle ethanol (1% v/v). The culture medium was then removed and the cells washed with 100 μL phosphate buffered saline (PBS) and 50 μL MTT added, to reach a final concentration of 1 mg/mL MTT added. Cells were incubated for 2 h in darkness at 37° C. At this point solubilization was begun through the addition of 200 μL DMSO and the cells maintained at room temperature in darkness for 20 min to ensure thorough colour diffusion before reading the absorbance. The absorbance value of control cells (no added compound) was set to 100% cell viability and from this graphs of absorbance versus cell density per well were prepared to assess cell viability and from these, graphs of percentage cell viability versus concentration of subject compound added were drawn.

[7] = In vitro stability in plasma; assay type: in vitro ADME; settings: human plasma
[8] = Stability by HPLC at three pH values; assay type: physicochemical
Method: The stability of β-lactam compounds 4, 8 and 12 was assessed by HPLC at three different pH values. […] The half-lives of 8 and 12 were both greater than 24 hours at all pH values. The stability of three ester prodrug derivatives of 4, i.e. 29, 30 and 31, was also assessed (FIG. 6).

[9] = MCF7, 72 h, antiproliferative activity, MTT, 72 h, read-out: IC50 (μM) MCF-7 cell line
[10] = HL-60-MDR(PGP), Alamar blue, read-out: IC50

T1 sequence (P08183 whole entry): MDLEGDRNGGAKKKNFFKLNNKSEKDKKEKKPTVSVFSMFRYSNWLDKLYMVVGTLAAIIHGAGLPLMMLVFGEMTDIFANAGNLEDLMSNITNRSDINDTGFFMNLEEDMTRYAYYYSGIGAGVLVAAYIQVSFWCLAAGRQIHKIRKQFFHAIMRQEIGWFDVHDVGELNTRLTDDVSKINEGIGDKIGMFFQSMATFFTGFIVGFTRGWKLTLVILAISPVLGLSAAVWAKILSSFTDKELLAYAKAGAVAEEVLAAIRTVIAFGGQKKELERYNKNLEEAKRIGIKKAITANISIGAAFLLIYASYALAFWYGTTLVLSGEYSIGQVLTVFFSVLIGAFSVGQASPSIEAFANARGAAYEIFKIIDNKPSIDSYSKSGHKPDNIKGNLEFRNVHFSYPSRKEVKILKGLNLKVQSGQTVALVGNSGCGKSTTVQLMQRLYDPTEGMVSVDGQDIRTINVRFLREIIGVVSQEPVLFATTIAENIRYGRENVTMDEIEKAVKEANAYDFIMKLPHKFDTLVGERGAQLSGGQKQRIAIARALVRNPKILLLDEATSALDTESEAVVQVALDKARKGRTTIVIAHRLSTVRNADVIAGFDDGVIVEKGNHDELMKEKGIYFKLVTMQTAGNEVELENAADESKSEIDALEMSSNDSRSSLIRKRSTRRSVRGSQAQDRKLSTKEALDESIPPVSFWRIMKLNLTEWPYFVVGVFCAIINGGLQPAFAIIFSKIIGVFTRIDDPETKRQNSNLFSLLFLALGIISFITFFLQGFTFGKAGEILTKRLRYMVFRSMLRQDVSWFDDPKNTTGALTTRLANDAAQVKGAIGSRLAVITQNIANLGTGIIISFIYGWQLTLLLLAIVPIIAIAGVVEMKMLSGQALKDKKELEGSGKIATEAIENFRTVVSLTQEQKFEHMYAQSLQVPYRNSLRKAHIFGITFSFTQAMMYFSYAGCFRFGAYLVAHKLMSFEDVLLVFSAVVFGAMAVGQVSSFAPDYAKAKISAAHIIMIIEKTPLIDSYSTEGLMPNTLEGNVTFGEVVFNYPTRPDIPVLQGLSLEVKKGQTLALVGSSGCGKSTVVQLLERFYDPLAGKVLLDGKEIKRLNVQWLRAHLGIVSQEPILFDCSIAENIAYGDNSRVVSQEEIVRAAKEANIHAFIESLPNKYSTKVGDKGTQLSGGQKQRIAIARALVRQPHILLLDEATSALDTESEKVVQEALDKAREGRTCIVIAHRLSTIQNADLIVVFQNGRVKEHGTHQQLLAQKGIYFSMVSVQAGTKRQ

- IC50 (A2780-ADR (PGP)): 5100 nM
SMILES: COc1cccc2c1C(=O)c1c(O)c3c(c(O)c1C2=O)C[C@@](O)(C(=O)CO)C[C@@H]3O[C@H]1C[C@H](N)[C@H](O)[C@H](C)O1 [Adriamycin, adriamycin]
- IC50 (A2780-parental): 42.8 nM
- RF (A2780-ADR (PGP)): 119.2

SMILES: COc1ccc(/C=C\c2cc(OC)c(OC)c(OC)c2)cc1O [CA-4, combretastatin A-4, reference compound]
- IC50 [1]: 4.1 nM
- IC50 (A2780-parental): 7.5 nM
- apoptosis induction compared with imatinib mesylate ([2]; 250 nM each, patient samples): more effective inducers of apoptosis than imatinib mesylate
- apoptosis in primary CML cells ([2]; 250 nM, chemotherapy naïve (4 samples) and imatinib mesylate resistant (2 samples)): induced apoptosis
- IC50 (HL-60-BCRP; Homo sapiens, 72 h): 3.5 nM
- RF (HL-60-BCRP; IC50 HL-60-BCRP / IC50 HL-60 parental): 0.8
- IC50 (A2780-ADR (PGP)): 6.8 nM
- RF (A2780-ADR (PGP)): 0.9
- Percent viability of normal mammary epithelial cells compared to control [3]: 92%
- effects on normal mammary epithelial cells [3]: minimal effects
- substrate for the p-glycoprotein (p-glycoprotein): poor substrates for the p-glycoprotein
- IC50 (HL-60-MDR(PGP)): 3.3 nM
- RF (HL-60-MDR(PGP)): 0.73
- IC50 [4]: 3.8 nM
- Percent viability of normal mammary epithelial cells compared to control ([5]; 1 nM): 98%
- Percent viability of normal mammary epithelial cells compared to control ([5]; 100 nM): 74.8%
- Percent viability of normal mammary epithelial cells compared to control ([5]; 1 μM): 74.7%
- Percent viability of normal mammary epithelial cells compared to control ([5]; 10 μM): 75.0%
- IC50 (HL-60 parental): 4.5 nM

SMILES: COc1ccc(C2C(Oc3ccccc3)C(=O)N2c2cc(OC)c(OC)c(OC)c2)cc1O (stereo not shown) [Compound 1, 4-(3-Hydroxy-4-methoxy-phenyl)-3-phenoxy-1-(3,4,5-trimethoxy-phenyl)-azetidin-2-one]
- IC50 [6, 9]: 0.038 µM
- half-life [7]: 35 h

- IC50 [1]: 17.1 nM
- IC50 [6, 9]: 0.0014 µM
- IC50 ([6]; MCF7, MTT cell viability assay, read-out: Inhibition of cell viability (IC50 value, nM) MCF-7): 0.0008 to 0.0031 µM
- IC50 [4]: 26.6 nM
SMILES: C=CC1C(=O)N(c2cc(OC)c(OC)c(OC)c2)C1c1ccc(OC)c(O)c1 (stereo not shown) [Compound 2, 4-(3-Hydroxy-4-methoxy-phenyl)-1-(3,4,5-trimethoxy-phenyl)-3-vinyl-azetidin-2-one]
- Percent viability of normal mammary epithelial cells compared to control [3]: 92.3%
- effects on normal mammary epithelial cells [3]: minimal effects
- Percent viability of normal mammary epithelial cells compared to control ([5]; 1 nM): 93.1%
- Percent viability of normal mammary epithelial cells compared to control ([5]; 100 nM): 74.4%
- Percent viability of normal mammary epithelial cells compared to control ([5]; 1 μM): 73.0%
- Percent viability of normal mammary epithelial cells compared to control ([5]; 10 μM): 73.8%

SMILES: COc1ccc(C2C(c3ccc(O)cc3)C(=O)N2c2cc(OC)c(OC)c(OC)c2)cc1 (stereo not shown) [Compound 10, 3-(4-Hydroxy-phenyl)-4-(4-methoxy-phenyl)-1-(3,4,5-trimethoxy-phenyl)-azetidin-2-one]
- IC50 [6, 9]: 0.059 µM
- melting point: 155 °C

SMILES: COc1ccc(C2C(c3ccc(F)cc3)C(=O)N2c2cc(OC)c(OC)c(OC)c2)cc1 (stereo not shown) [Compound 11, 3-(4-Fluoro-phenyl)-4-(4-methoxy-phenyl)-1-(3,4,5-trimethoxy-phenyl)-azetidin-2-one]
- IC50 [6, 9]: 0.042 µM
- melting point: 120 °C

- IC50 [6, 9]: 0.039 µM
- melting point: 177 °C
SMILES: COc1ccc(C2C(c3ccc(O)cc3)C(=O)N2c2cc(OC)c(OC)c(OC)c2)cc1N (stereo not shown) [Compound 15, 4-(3-Amino-4-methoxy-phenyl)-3-(4-hydroxy-phenyl)-1-(3,4,5-trimethoxy-phenyl)-azetidin-2-one]

- IC50 [6, 9]: 0.007 µM
- melting point: 113 to 114 °C
SMILES: COc1ccc(C2C(c3cccs3)C(=O)N2c2cc(OC)c(OC)c(OC)c2)cc1O (stereo not shown) [Compound 18, 4-(3-Hydroxy-4-methoxy-phenyl)-3-thiophen-2-yl-1-(3,4,5-trimethoxy-phenyl)-azetidin-2-one]

SMILES: COc1ccc(C2C(c3ccsc3)C(=O)N2c2cc(OC)c(OC)c(OC)c2)cc1O (stereo not shown) [Compound 20, 4-(3-Hydroxy-4-methoxy-phenyl)-3-thiophen-3-yl-1-(3,4,5-trimethoxy-phenyl)-azetidin-2-one]
- IC50 [6, 9]: 0.01 µM
- melting point: 151 to 152 °C

- IC50 [6, 9]: 0.06 µM
- melting point: 130 °C
SMILES: COc1ccc(C2C(c3ccsc3)C(=O)N2c2cc(OC)c(OC)c(OC)c2)cc1 (stereo not shown) [Compound 21, 4-(4-Methoxy-phenyl)-3-thiophen-3-yl-1-(3,4,5-trimethoxy-phenyl)-azetidin-2-one]

- compound remaining after 24 hours ([8]; pH 4): 61%
- compound remaining after 24 hours ([8]; pH 7.4): 35%
- compound remaining after 24 hours ([8]; pH 9): 76%
SMILES: COc1ccc(C2[C@H](c3ccccc3)C(=O)N2c2cc(OC)c(OC)c(OC)c2)cc1OC(=O)c1ccccc1 (stereo partly shown) [Compound 31]

- IC50 (A2780-ADR (PGP)): > 10000 nM
- IC50 (HL-60-MDR(PGP); [10]): > 10000 nM
SMILES: CC(=O)O[C@H]1C(=O)[C@@]2(C)[C@H]([C@H](OC(=O)c3ccccc3)[C@]3(O)C[C@H](OC(=O)[C@H](O)[C@@H](NC(=O)c4ccccc4)c4ccccc4)C(C)=C1C3(C)C)[C@]1(OC(C)=O)CO[C@@H]1C[C@@H]2O [Paclitaxel, paclitaxel]
- IC50 (A2780-parental): 4.2 nM
- RF (A2780-ADR (PGP)): >2,381
- RF (HL-60-MDR(PGP)): >2,083
- IC50 (HL-60 parental): 4.8 nM

- IC50 (A2780-ADR (PGP)): 1600 nM
- IC50 (HL-60-MDR(PGP); [10]): 610 nM
SMILES: CC[C@]1(O)C[C@H]2CN(CCc3c([nH]c4ccccc34)[C@@](C(=O)OC)(c3cc4c(cc3OC)N(C=O)[C@H]3[C@@](O)(C(=O)OC)[C@H](OC(C)=O)[C@]5(CC)C=CCN6CC[C@]43[C@@H]65)C2)C1 [Vincristine, vincristine]
- IC50 (A2780-parental): 3.1 nM
- RF (A2780-ADR (PGP)): 516
- RF (HL-60-MDR(PGP)): 277.3
- IC50 (HL-60 parental): 2.2 nM
